One experiment has as its target T1, menin-MLL interaction (Homo sapiens, UniProt O00255).
T1 sequence (O00255 1-610): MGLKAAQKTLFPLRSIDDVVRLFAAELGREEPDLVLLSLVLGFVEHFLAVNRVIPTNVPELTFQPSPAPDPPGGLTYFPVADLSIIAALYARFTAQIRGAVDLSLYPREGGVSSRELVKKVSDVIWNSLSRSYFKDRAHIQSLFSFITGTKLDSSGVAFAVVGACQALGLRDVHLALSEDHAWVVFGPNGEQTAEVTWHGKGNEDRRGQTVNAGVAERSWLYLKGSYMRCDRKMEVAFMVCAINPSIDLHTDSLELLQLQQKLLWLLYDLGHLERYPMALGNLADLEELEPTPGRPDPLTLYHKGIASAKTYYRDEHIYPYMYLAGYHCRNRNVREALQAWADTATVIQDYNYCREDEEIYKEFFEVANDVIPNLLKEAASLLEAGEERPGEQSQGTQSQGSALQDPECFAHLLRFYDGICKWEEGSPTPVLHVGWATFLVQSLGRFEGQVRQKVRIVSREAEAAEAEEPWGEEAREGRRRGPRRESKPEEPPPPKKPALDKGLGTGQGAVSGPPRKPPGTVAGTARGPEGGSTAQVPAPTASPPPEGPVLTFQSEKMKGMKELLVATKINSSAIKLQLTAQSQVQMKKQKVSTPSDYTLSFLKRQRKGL
The experiment in a line: biochemical.

In a further experiment the target is T2, menin (Homo sapiens, UniProt O00255).
T2 sequence (O00255 1-610): T1 sequence (O00255 1-610)
In words: Isothermal Titration calorimetry (ITC). The experiment is classed as binding. Particulars: FIG. 1.

Experiment [1] deals with T3, menin-MLL-AF9 interaction (Homo sapiens, UniProt O00255).
T3 construct: performed in HEK293 cells transfected with MLL-AF9; endogenous in cells; host or cells: HEK293
T3 sequence (O00255 1-610): T1 sequence (O00255 1-610)
In words: Co-Immunoprecipitation (co-IP) in HEK293 cells transfected with MLL-AF9. The format is cell-based. Particulars: FIG. 2.

For experiment [2], the system named is MLL-AF9 transformed mouse bone marrow cells (BMC). The experiment in a line: MTT cell viability assay in transformed BMC. The format is cell-based. Particulars: 72 h incubation, E2H-HLF transformed BMC as negative control, FIG. 3.
The subject of experiment [3] is Hoxa9 and Meis1 expression in MLL-AF9 BMC. In words: qRT-PCR of Hoxa9 and Meis1. The experiment is classed as cell-based, mouse. Particulars: FIG. 10. For orientation: Quantitative PCR measures a nucleic acid by following its amplification.
In experiment [4] the test system is MLL-AF9 BMC. The experiment in a line: Colony formation assay. The format is cell-based, mouse. The conditions noted are these: FIG. 7.
Experiment [5] relates to human MLL leukemia cell lines. The experiment in a line: Growth / MTT cell viability in human MLL leukemia cell lines. The format is cell-based.
Experiment [6] deals with mice model of MLL-AF9 leukemia. In words: In vivo efficacy in mice model of MLL-AF9 leukemia. The conditions noted are these: once daily i.p. injections of 75 mg/kg, FIG. 18.
A further experiment deals with MLL-AF9 transformed BMC. In words: Growth curves experiments in transformed BMC. The format is cell-based, mouse. The conditions noted are these: MLL-AF9 BMC vs Hoxa9/Meis1 transformed BMC (negative control), FIG. 5.
In experiment [7] the test system is MLL-AF9 BMC. The experiment in a line: Differentiation (CD11b expression, cell morphology). The experiment is classed as cell-based, mouse. Particulars: change in CD11b expression and cell morphology, FIGS. 8, 9.
Experiment [8] deals with non-MLL leukemia cell lines. In words: Growth in non-MLL leukemia cell lines. The format is cell-based. The conditions noted are these: FIG. 13B.

This note sets out measurements from patent US10160769B2, “Compositions comprising thienopyrimidine and thienopyridine compounds and methods of use thereof” (The Regents of the University of Michigan, priority 2013, dated 2018).

Description for menin-MLL interaction: Fluorescence Polarization Assay.
Compounds that inhibit the interaction decrease the fluorescence anisotropy which is being used as a read-out for compound screening and for IC50 determination.

Consider `CC1(C)CN=C(N2C[C@@H]3C[C@H]2CN3c2ncnc3sc(CC(F)(F)F)cc23)S1` (racemic) [Compound 14], for which the 50% inhibitory concentration (IC50) (as a rule, the midpoint of a concentration-inhibition curve) against menin-MLL interaction lay within 100 to 510 nM.
On to `CC1(C)CN=C(N2CCN(c3ncnc4sc(CC(F)(F)F)cc34)CC2)S1` [Compound 1, 4-(4-(5,5-dimethyl-4,5-dihydrothiazol-2-yl)piperazin-1-yl)-6-(2,2,2-trifluoroethyl)thieno[2,3-d]pyrimidine], for which the binding to menin entry on menin was “direct binding”. In [1], the “inhibition of the menin-MLL-AF9 interaction” value (shortened to “inhibition”) is “inhibition of the menin-MLL-AF9 interaction”. Moreover, the “proliferation of MLL leukemia cells” value in experiment [2] is “selectively inhibit proliferation”. Moreover, in [3], the “expression of downstream targets of MLL fusion proteins: Hoxa9 and Meis1” value (from here on “expression”) is recorded as “downregulate expression”.
With `FC(F)(F)Cc1cc2c(NC3CCN(Cc4ccccc4)CC3)ncnc2s1` [Compound 108], the “inhibition” value in [1] is listed as “inhibition of the menin-MLL-AF9 interaction”. For the same molecule, in [2], the “proliferation of MLL leukemia cells” value is given as “selectively inhibit proliferation”. For the same molecule, the morphology of colonies entry in the experiment on MLL-AF9 BMC [4] was “changes morphology of colonies”. Also, the colony number entry in the experiment with MLL-AF9 BMC [4] (each round 7 days) is on record as “reduces colony number”. Also, the “expression” value in experiment [3] is “downregulate expression”. Further, the “growth of human MLL leukemia cell lines” value in experiment [5] (MTT, 3 days of incubation, FIG. 11) is “selectively inhibit growth”. Also, the “survival of leukemic mice” value in experiment [6] is “Increase in survival”.
The molecule `CC(F)(F)Cc1cc2c(NC3CCN(Cc4ccccc4)CC3)ncnc2s1` [Compound 155] showed a half-maximal inhibitory concentration (IC50) against menin-MLL interaction of 500 to 2000 nM.
Take `N#Cc1cc2cc(CN3CCC(Nc4ncnc5sc(CC(F)(F)F)cc45)CC3)ccc2[nH]1` [Compound 175, 5-((4-((6-(2,2,2-trifluoroethyl)thieno[2,3-d]pyrimidin-4-yl)amino)piperidin-1-yl)methyl)-1H-indole-2-carbonitrile]: the “inhibition” value in experiment [1] is recorded as “inhibition of the menin-MLL-AF9 interaction”. For the same molecule, the “selectivity towards MLL fusion protein transformed cells” value with MLL-AF9 transformed BMC is reported as “great selectivity”. In the experiment on MLL-AF9 BMC [7], the differentiation entry was “Differentiation induced”. The “expression” value in [3] was “downregulate expression”. Moreover, the “growth of human MLL leukemia cell lines” value in experiment [5] (FIG. 13A) is listed as “selectively inhibits growth”. Moreover, the “effect in non-MLL leukemia cell lines” value in [8] is reported as “limited effect”.
